Patent US20220340650A1, “COMBINATION THERAPY WITH CGRP ANTAGONISTS” (Allergan Pharmaceuticals International Limited, priority 2019, published 2022)
“Also recorded” adds a separate entry of the source.

Experiments:
[1] = Phase 1b trial NCT04179474, safety and tolerability (adverse events), galcanezumab arm (Part 2); design: species or system human; conditions: in vivo
Experimental: (§1) A two-part, multi-center, open-label, phase 1b trial (NCT04179474) in 40 adults (aged 18-50 years) diagnosed with migraine was conducted to evaluate the impact of erenumab or galcanezumab on the pharmacokinetics (PK), safety, and tolerability of ubrogepant in patients with migraine.
(§2) This open-label, multicenter trial enrolled adults diagnosed for greater than or equal to one year with migraine not on preventive treatment. Participants were assigned to an erenumab arm (Part 1) or a galcanezumab arm (Part 2). In each arm, participants received ubrogepant 100 mg on day 1 (without an antibody). On day 8, participants received the assigned monoclonal antibody: single subcutaneous (SC) erenumab 140 mg injection (Part 1) or galcanezumab 240 mg (2 SC 120 mg injections) (Part 2). Ubrogepant 100 mg was administered once daily on days 12-15. Participants were followed for 30 days.
(§3) Of 40 enrolled participants, 20 were included in part 1 (n=20 ubrogepant, n=19 erenumab, and n=19 co-administered ubrogepant and erenumab) and 20 were included in part 2 (n=20 ubrogepant, n=20 galcanezumab, and n=19 co-administered ubrogepant and galcanezumab).
(§4) PK parameters, derived from plasma ubrogepant concentrations in blood collected at prespecified time points over 24 hours post-dose on days 1 and 12, included area under the curve from time 0 to time t (AUC0-t) or to infinity (AUC0-∞); peak plasma concentration (Cmax), time to Cmax (Tmax); and apparent terminal half life (t1/2). Safety outcomes included incidence of adverse events (AEs; daily and through follow-up), and laboratory values, vital signs, and electrocardiogram (ECG) results (at prespecified timepoints pre- and post-dose). Log-transformed Cmax, AUC0-t, and […] , for ubrogepant with and without erenumab or galcanezumab with 90% CI were constructed.

[2] = Phase 1b trial NCT04179474, safety and tolerability (adverse events), erenumab arm (Part 1); design: species or system human; conditions: in vivo
Experimental: as §1, §2, §3, §4

[3] = Phase 1b trial NCT04179474, plasma ubrogepant pharmacokinetics, galcanezumab arm (Part 2); format: in vivo, human; conditions: for AUC(0-t): 100 mg
Experimental: as §1, §2
Of 40 enrolled participants, 20 were included in part 1 (n=20 ubrogepant, n=19 erenumab, and n=19 co-administered ubrogepant and erenumab) and 20 were included in part 2 (n=20 ubrogepant, n=20 galcanezumab, […]).
as §4

[4] = Phase 1b trial NCT04179474, plasma ubrogepant pharmacokinetics, erenumab arm (Part 1); format: in vivo, human; conditions: for half-life: read-out: t1/2, mean (converted)
Experimental: as §1, §2, §3, §4

[5] = tested on: CYP enzymes; conditions: general statement, no test described; cited from earlier work
[6] = galcanezumab arm, ubrogepant 100 mg alone, day 1, n = 20
[7] = erenumab arm, ubrogepant 100 mg alone, day 1, n = 20

## C[C@@H]1[C@H](c2ccccc2)C[C@H](NC(=O)c2cnc3c(c2)C[C@@]2(C3)C(=O)Nc3ncccc32)C(=O)N1CC(F)(F)F [Ubrogepant, ubrogepant]
[1]; human
  Abdominal Discomfort, participants: 0 participants
  Dizziness, participants: 0 participants
  Headache, participants: 0 participants
  Hiccups, participants: 0 participants
  TEAEs, participants (%): (10.0) %
  Upper Abdominal Pain, participants: 0 participants
[1]
  safety concerns on co-administration: no safety concerns were identified
[2]; human
  Abdominal Pain, participants: 0 participants
  Constipation, participants: 0 participants
  Flatulence, participants: 0 participants
  Headache, participants: 1 participants
  Headache, participants (%): (5.0) %
  Nasopharyngitis, participants: 1 participants
  Nasopharyngitis, participants (%): (5.0) %
  Nausea, participants: 0 participants
  Somnolence, participants: 1 participants
  Somnolence, participants (%): (5.0) %
  TEAEs, participants (%): (35.0) %
  Treatment Related AEs, participants (%): (10.0) %
  Upper Abdominal Pain, participants: 0 participants
[2]
  safety concerns on co-administration: no safety concerns were identified
[3]; [6]
  AUC0-∞, mean: 1732.2 ng·h/mL
  CL/F, mean: 72.9 L/h
  Cmax, mean: 415.3 ng/mL
  t1/2, mean: 4.6 h
[3]; human, plasma, oral, galcanezumab arm, ubrogepant 100 mg alone, day 1, n = 20, read-out: AUC0-t, mean
  AUC(0-t): 1700 ng·h/mL
[3]; human, plasma, oral, galcanezumab arm, ubrogepant 100 mg alone, day 1, read-out: AUC0-t, geometric LSM
  AUC(0-t): 1510 ng·h/mL
[3]; human, plasma, oral, galcanezumab arm, ubrogepant 100 mg alone, day 1, n = 20, read-out: VZ/F, mean
  Vd/F: 569 L
[3]; human, plasma, oral, galcanezumab arm, ubrogepant 100 mg alone, day 1, read-out: AUC0-∞, geometric LSM
  AUC(0-inf): 1540 ng·h/mL
[3]; human, plasma, oral, galcanezumab arm, ubrogepant 100 mg alone, day 1, read-out: Cmax, geometric LSM
  Cmax: 359 ng/mL
[3]; human, plasma, oral, galcanezumab arm, ubrogepant 100 mg day 12, after SC galcanezumab 240 mg on day 8, n = 20
  Tmax: 1.5 h
[3]; human, plasma, oral, galcanezumab arm, ubrogepant 100 mg day 12, after SC galcanezumab 240 mg on day 8, n = 20, read-out: t1/2, mean (converted)
  half-life: 5 h
[3]; ubrogepant 100 mg, galcanezumab 240 mg SC
  change in ubrogepant PK (Cmax, AUC0-t, AUC0-28) after coadministration with galcanezumab versus alone: no significant change; also recorded: unchanged
[3]; vs ubrogepant alone
  change in ubrogepant Cmax with galcanezumab coadministration: unchanged
  increase in ubrogepant AUC0-t with galcanezumab coadministration: 5%
  increase in ubrogepant AUC0-∞ with galcanezumab coadministration: 5%
[4]; [7]
  CL/F, mean: 57.4 L/h
  t1/2, mean: 4.6 h
[4]; human, plasma, oral, erenumab arm, ubrogepant 100 mg alone, day 1, read-out: AUC0-t, geometric LSM
  AUC(0-t): 1780 ng·h/mL
[4]; human, plasma, oral, erenumab arm, ubrogepant 100 mg alone, day 1, read-out: AUC0-∞, geometric LSM
  AUC(0-inf): 1810 ng·h/mL
[4]; human, plasma, oral, erenumab arm, ubrogepant 100 mg alone, day 1, read-out: Cmax, geometric LSM
  Cmax: 431 ng/mL
[4]; human, plasma, other: extravascular administration, erenumab arm, ubrogepant 100 mg alone, day 1, n = 20, read-out: AUC0-t, mean
  AUC(0-t): 1840 ng·h/mL
[4]; human, plasma, other: extravascular administration, erenumab arm, ubrogepant 100 mg alone, day 1, n = 20, read-out: AUC0-∞, mean
  AUC(0-inf): 1880 ng·h/mL
[4]; human, plasma, other: extravascular administration, erenumab arm, ubrogepant 100 mg alone, day 1, n = 20, read-out: Cmax, mean
  Cmax: 459 ng/mL
[4]; human, plasma, other: extravascular administration, erenumab arm, ubrogepant 100 mg alone, day 1, n = 20, read-out: VZ/F, mean
  Vd/F: 437 L
[4]; human, plasma, other: extravascular administration, erenumab arm, ubrogepant 100 mg alone, day 1, n = 20
  half-life: 5.3 h
[4]; human, plasma, erenumab arm, ubrogepant 100 mg day 12, after SC erenumab 140 mg on day 8, n = 19
  half-life: 5.3 h
[4]; human, plasma, erenumab arm, ubrogepant 100 mg day 12, after SC erenumab 140 mg on day 8, n = 19, read-out: tmax, median
  Tmax: 1.5 h
[4]; ubrogepant 100 mg, erenumab 140 mg SC
  change in ubrogepant PK (Cmax, AUC0-t, AUC0-∞) after coadministration with erenumab versus alone: no significant change; also recorded: minimally elevated; also recorded: unchanged

B1: erenumab (antibody, chains of the INN, looked up, V domains shown)
VH: QVQLVESGGGVVQPGRSLRLSCAASGFTFSSFGMHWVRQAPGKGLEWVAVISFDGSIKYSVDSVKGRFTISRDNSKNTLFLQMNSLRAEDTAVYYCARDRLNYYDSSGYYHYKYYGMAVWGQGTTVTVSS
VL: QSVLTQPPSVSAAPGQKVTISCSGSSSNIGNNYVSWYQQLPGTAPKLLIYDNNKRPSGIPDRFSGSKSGTSTTLGITGLQTGDEADYYCGTWDSRLSAVVFGGGTKLTVL
[2]
  Abdominal Pain, participants: 0 participants
  Constipation, participants: 0 participants
  Flatulence, participants: 1 participants
  Flatulence, participants (%): (5.3) %
  Headache, participants: 6 participants
  Headache, participants (%): (31.6) %
  Nasopharyngitis, participants: 0 participants
  Nausea, participants: 0 participants
  Somnolence, participants: 0 participants
  TEAEs, participants (%): (42.1) %
  Treatment Related AEs, participants (%): (36.8) %
  Upper Abdominal Pain, participants: 0 participants
[5]
  metabolism by CYP enzymes: not metabolized by CYP enzymes

B2: galcanezumab (antibody, chains of the INN, looked up, V domains shown)
VH: QVQLVQSGAEVKKPGSSVKVSCKASGYTFGNYWMQWVRQAPGQGLEWMGAIYEGTGKTVYIQKFADRVTITADKSTSTAYMELSSLRSEDTAVYYCARLSDYVSGFGYWGQGTTVTVSS
VL: DIQMTQSPSSLSASVGDRVTITCRASKDISKYLNWYQQKPGKAPKLLIYYTSGYHSGVPSRFSGSGSGTDFTLTISSLQPEDFATYYCQQGDALPPTFGGGTKVEIK
notes: long-acting CGRP antagonist antibody that targets the CGRP ligand
[1]
  Abdominal Discomfort, participants: 0 participants
  Dizziness, participants: 0 participants
  Headache, participants: 3 participants
  Headache, participants (%): (15.0) %
  Hiccups, participants: 1 participants
  Hiccups, participants (%): (5.0) %
  TEAEs, participants (%): (15.0) %
  Treatment-related AEs, participants (%): (15.0) %
  Upper Abdominal Pain, participants: 0 participants
[5]
  metabolism by CYP enzymes: not metabolized by CYP enzymes
